According to patent US20240287052A1, “NOVEL OXAZOLE DERIVATIVE AND PHARMACEUTICAL COMPOSITION FOR PREVENTING OR TREATING ALLERGIC DISEASES COMPRISING THE SAME” (AZCURIS CO., LTD., priority 2021, published 2024):
Where two headings read alike, the source gives them in different places.

What was measured:
IL33 and ST2 binding = target: T1, IL33 and ST2 binding (Homo sapiens, UniProt O95760);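 further: plate ELISA with coated Flag-tagged human IL-33 and His-tagged human ST2, bound ST2 detected by anti-His HRP and TMB absorbance at 450 nm, 2 h compound incubation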
T1 sequence (O95760 112-270 limits assumed): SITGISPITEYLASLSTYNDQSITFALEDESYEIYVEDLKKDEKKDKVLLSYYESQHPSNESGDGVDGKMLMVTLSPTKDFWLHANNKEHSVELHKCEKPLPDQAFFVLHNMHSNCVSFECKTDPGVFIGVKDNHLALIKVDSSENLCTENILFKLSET
Method: 100 nM of Flag tagged IL-33 human recombinant protein was prepared in 1× coating buffer (Biolegend) and placed in a 96 well microplate (Coming) using a Multichannel pipette (Gilson) and coated for at least 12 hours at 4° C.
After washing three times with PBST (1×PBS (Welgene), 1% Tween 20 (sigma)), it was reacted with 1% BSA (Bovogen) blocking buffer for 1 hour at room temperature.
Samples containing 200 nM of His-tagged ST2 human recombinant protein and 60 μM or 200 μM Example synthetic compounds were prepared, added in equal volumes, and reacted for at least 2 hours at room temperature.
After washing three times with PBST (1×PBS (Welgene), 1% Tween 20 (sigma)), anti-His HRP (BioLegend) antibody was diluted 5000:1 and reacted for at least 1 hour at room temperature.
After washing three times with PBST (1×PBS (Welgene), 1% Tween 20 (sigma)), TMB substrate solution (Thermo) was added and reacted for more than 5 minutes. The reaction was stopped by adding 1 N HCl (Samchun) and the absorbance value was obtained at 450 nm after orbital shaking for 5 s with a Microplate reader (Tecan, Spark®).
The results derived from the program linked to the microplate reader were analyzed using an Excel program. IL33-ST2 binding rate (binding %) was calculated by averaging the three values obtained in triplicate, subtracting the positive control value, and converting the negative control value to 100%. The inhibition % value of each compound was obtained by subtracting the IL33-ST2 binding % from 100%, and the error range of triplicate was also obtained and reflected in the inhibition graph of the compound.

[1] = system: IL-6 secretion in the human mast cell line HMC 1.1; test: IL-6 production inhibition assay (IL-33 stimulated HMC 1.1 cells, IL-6 ELISA); assay type: cell-based; details: for inhibition at 1 µM: 1 μM compound, read-out: Inhibition of hIL-6 production (%) 1 μM; for inhibition at 10 µM: 10 μM compound, read-out: Inhibition of hIL-6 production (%) 10 μM
Method: Human mast cell line HMC 1.1 cells were cultured in medium (Iscove's Modified Dulbecco's Medium, IMDM, HyClone) supplemented with […] fetal bovine serum (FBS, HyClone) and 1% antibiotics and maintained at 37° C. with 5% CO2.
HMC 1.1 cells, which are non-adherent cells, were cultured in 0.5 mL of culture medium containing 200 nM of IL-33 wild type human recombinant protein after centrifugation of cells in culture flasks filled to […] capacity and incubated for 24 hours with […], 10 μM, 25 μM, 30 μM or 50 μM of Example compound.
Medium was harvested by centrifugation (2,000×g, 5 min) and stored at −80° C. until ELISA assay.
Experiments were performed according to the protocol using the Human IL-6 ELISA kit (abCam).
The average of the three values obtained in triplicate was calculated and the amount of IL-6 secretion was measured using a standard curve. The measured IL-6 secretion was converted to 100% based on the vehicle treatment sample value to obtain the vehicle %.

[2] = system: Human liver cancer cell line HepG2 cells; test: Cellular viability, WST-8 assay, without or with human liver microsomes; assay type: cell-based; details: for Cellular viability (%) (+) microsome: HepG2, with human liver microsomes; for Cellular viability (%) (−) microsome: HepG2, without human liver microsomes
Method: Human liver cancer cell line HepG2 cells were cultured in a medium (high glucose Dulbecco's Modified Eagle Medium, DMEM, HyClone) supplemented with 10% fetal bovine serum (FBS, HyClone) and 1% antibiotic in a thermostat maintained at 37° C. with 5% CO2.
HepG2 cells, which are adherent cells, were […] or presence of human liver microsomes (Gibco) and NADPH regenerating system.
Cell cultures were exchanged using […] of medium (high glucose Dulbecco's Modified Eagle Medium, DMEM, HyClone) and incubated for 24 hours.
After adding 10 μL of WST-8 (abCam), the absorbance was obtained at 460 nm after 5 seconds of orbital shaking with a microplate reader (Tecan, Spark©) 2 hours later.
The mean of the three values obtained in triplicate was calculated and expressed as % cellular viability compared to vehicle treatment.

inhibition (IL33 and ST2 binding; 30 µM) [%]	Compound	inhibition at 1 µM ([1]; 24 hours) [%]	inhibition at 10 µM ([1]; 24 hours) [%]	other results
38	CCCNC(=O)c1nc(-c2ccc(C(F)(F)F)cc2)oc1-c1ccccc1OC(F)(F)F [Compound 306, N-Propyl-5-(2-(trifluoromethoxy)phenyl)-2-(4-(trifluoromethyl)phenyl)oxazole-4-carboxamide]	-38	45	–
5	COc1cccc(-c2oc(-c3ccc(C(F)(F)F)cc3)nc2C(=O)NCCN2CCN(C(C)=O)CC2)c1 [Compound 198, N-(2-(4-acetylpiperazin-1-yl)ethyl)-5-(3-methoxyphenyl)-2-(4-(trifluoromethyl)phenyl)oxazole-4-carboxamide]	62	77	–
31	O=C(NCCCn1ccnc1)c1nc(-c2ccc(C(F)(F)F)cc2)oc1-c1ccccc1[N+](=O)[O-] [Compound 158, N-(3-(1H-Imidazol-1-yl)propyl)-5-(2-nitrophenyl)-2-(4-(trifluoromethyl)phenyl)oxazole-4-carboxamide]	–	–	inhibition (IL33 and ST2 binding; 100 µM): 26%; Cellular viability (%) (+) microsome ([2]; at 50 μM): 17 at %; Cellular viability (%) (−) microsome ([2]; at 50 μM): 17 at %
-28	CC(=O)N1CCN(CCNC(=O)c2nc(-c3ccccc3C(F)(F)F)oc2-c2ccccc2)CC1 [Compound 128, N-(2-(4-acetylpiperazin-1-yl)ethyl)-5-phenyl-2-(2-(trifluoromethyl)phenyl)oxazole-4-carboxamide]	66	80	–
–	CCOC(=O)c1nc(-c2cc(F)cc(F)c2)oc1-c1ccccc1[N+](=O)[O-] [Compound 74, Ethyl 2-(3,5-difluorophenyl)-5-(2-nitrophenyl)oxazole-4-carboxylate]	–	–	Cellular viability (%) (+) microsome ([2]; at 45 μM): 96 at %; Cellular viability (%) (−) microsome ([2]; at 45 μM): 101 at %
92	CN1CCN(CCNC(=O)c2nc(-c3ccc(C(F)(F)F)cc3)oc2-c2ccccc2[N+](=O)[O-])CC1 [Compound 153, N-(2-(4-Methylpiperazin-1-yl)ethyl)-5-(2-nitrophenyl)-2-(4-(trifluoromethyl)phenyl)oxazole-4-carboxamide]	–	–	inhibition (IL33 and ST2 binding; 100 µM): 95%; Cellular viability (%) (+) microsome ([2]; at 50 μM): 36 at %; Cellular viability (%) (−) microsome ([2]; at 50 μM): 19 at %
-18	CCNC(=O)c1nc(-c2cccc(Cl)c2)oc1-c1ccccc1 [Compound 314, 2-(3-Chlorophenyl)-N-ethyl-5-phenyloxazole-4-carboxamide]	10	81	–
-4	CCNC(=O)c1nc(-c2ccc(C#N)cc2)oc1-c1ccccc1 [Compound 315, 2-(4-cyanophenyl)-N-ethyl-5-phenyloxazole-4-carboxamide]	47	61	–
–	CCOC(=O)c1coc(-c2ccc(C(F)(F)F)cc2)n1 [Compound 6, Ethyl 2-(4-(trifluoromethyl)phenyl)oxazole-4-carboxylate]	–	–	inhibition (IL33 and ST2 binding; 100 µM): 110%; Cellular viability (%) (+) microsome ([2]; at 45 μM): 99 at %; Cellular viability (%) (−) microsome ([2]; at 45 μM): 66 at %
-47	CCNC(=O)c1nc(-c2ccc(OC)cc2)oc1-c1ccccc1 [Compound 312, N-Ethyl-2-(4-methoxyphenyl)-5-phenyloxazole-4-carboxamide]	66	81	–
87	CCOC(=O)c1nc(-c2ccc(C(F)(F)F)cc2)oc1-c1cc(OC)cc(OC)c1 [Compound 48, Ethyl 5-(3,5-dimethoxyphenyl)-2-(4-(trifluoromethyl)phenyl)oxazole-4-carboxylate]	22	39	–
-8	CN(C)CCNC(=O)c1nc(-c2ccc(F)c(F)c2)oc1-c1ccccc1 [Compound 231, 2-(3,4-Difluorophenyl)-N-(2-(dimethylamino)ethyl)-5-phenyloxazole-4-carboxamide]	–	–	inhibition (IL33 and ST2 binding; 100 µM): 5%; Cellular viability (%) (+) microsome ([2]; at 50 μM): 29 at %; Cellular viability (%) (−) microsome ([2]; at 50 μM): 17 at %
73	CC(=O)NCCNC(=O)c1nc(-c2ccc(C(F)(F)F)cc2)oc1-c1ccccc1[N+](=O)[O-] [Compound 285, N-(2-acetamidoethyl)-5-(2-nitrophenyl)-2-(4-(trifluoromethyl)phenyl)oxazole-4-carboxamide]	–	–	inhibition (IL33 and ST2 binding; 100 µM): 72%; Cellular viability (%) (+) microsome ([2]; at 30 μM): 59 at %; Cellular viability (%) (−) microsome ([2]; at 30 μM): 54 at %
87	CCNC(=O)c1nc(-c2ccc(C(F)(F)F)cc2)oc1-c1cccc(OC)c1 [Compound 298, N-Ethyl-5-(3-methoxyphenyl)-2-(4-(trifluoromethyl)phenyl)oxazole-4-carboxamide]	70	75	inhibition at 0.1 µM ([1]; 0.1 μM compound, 24 hours, read-out: Inhibition of hIL-6 production (%) 0.1 μM): 12%; EC50 ([1]; read-out: Inhibition of hIL-6 production EC50): 640 nM
-65	CCOC(=O)c1nc(-c2ccc(C(F)(F)F)cc2)oc1-c1cc(OC)c(OC)c(OC)c1 [Compound 49, Ethyl 2-(4-(trifluoromethyl)phenyl)-5-(3,4,5-trimethoxyphenyl)oxazole-4-carboxylate]	-2	16	–
41	CSc1ccc(-c2oc(-c3ccc(C(F)(F)F)cc3)nc2C(=O)NCCN2CCN(C(C)=O)CC2)cc1 [Compound 194, N-(2-(4-acetylpiperazin-1-yl)ethyl)-5-(4-(methylthio)phenyl)-2-(4-(trifluoromethyl)phenyl)oxazole-4-carboxamide]	44	68	–
-5	CCNC(=O)c1nc(-c2ccc(C(F)(F)F)cc2)oc1-c1cccc(C#N)c1 [Compound 311, 5-(3-Cyanophenyl)-N-ethyl-2-(4-(Trifluoromethyl)phenyl)oxazole-4-carboxamide]	64	80	–
-57	CCOC(=O)c1nc(-c2ccc(C(F)(F)F)cc2)oc1-c1ccc(OC)c(OC)c1 [Compound 47, Ethyl 5-(3,4-dimethoxyphenyl)-2-(4-(trifluoromethyl)phenyl)oxazole-4-carboxylate]	36	26	–
-38	COc1ccc(-c2nc(C(=O)NCCN(C)C)c(-c3ccc([N+](=O)[O-])cc3)o2)cc1 [Compound 217, N-(2-(Dimethylamino)ethyl)-2-(4-methoxyphenyl)-5-(4-nitrophenyl)oxazole-4-carboxamide]	–	–	inhibition (IL33 and ST2 binding; 100 µM): -51%; Cellular viability (%) (+) microsome ([2]; at 100 μM): 34 at %; Cellular viability (%) (−) microsome ([2]; at 100 μM): 19 at %
-17	CCNC(=O)c1nc(-c2ccc(C(F)(F)F)cc2)oc1-c1ccccc1OC(F)(F)F [Compound 305, N-Ethyl-5-(2-(trifluoromethoxy)phenyl)-2-(4-(trifluoromethyl)phenyl)oxazole-4-carboxamide]	-4	26	–
-29	CCNC(=O)c1nc(-c2cc(F)cc(F)c2)oc1-c1ccccc1 [Compound 313, 2-(3,5-Difluorophenyl)-N-ethyl-5-phenyloxazole-4-carboxamide]	-7	27	–
99	CC(=O)N1CCN(CCNC(=O)c2nc(-c3ccc(C(F)(F)F)cc3)oc2-c2cccnc2)CC1 [Compound 197, N-(2-(4-acetylpiperazin-1-yl)ethyl)-5-(pyridin-3-yl)-2-(4-(trifluoromethyl)phenyl)oxazole-4-carboxamide]	62	70	–
–	CCOC(=O)c1nc(-c2ccc(C(F)(F)F)cc2)oc1-c1ccccc1N [Compound 99, Ethyl 5-(2-aminophenyl)-2-(4-(trifluoromethyl)phenyl)oxazole-4-carboxylate]	–	–	Cellular viability (%) (+) microsome ([2]; at 25 μM): 96 at %; Cellular viability (%) (−) microsome ([2]; at 25 μM): 79 at %
–	CCNC(=O)c1nc(-c2ccc(C(F)(F)F)cc2)oc1-c1ccncc1 [Compound 309, N-Ethyl-5-(pyridin-4-yl)-2-(4-(trifluoromethyl)phenyl)oxazole-4-carboxamide]	56	51	–
